The record followed here is EP4603105A1, “PHARMACEUTICAL COMPOSITION CONTAINING CYCLIC COMPOUND HAVING SELECTIVE KRAS INHIBITORY EFFECT AGAINST HRAS AND NRAS” (CHUGAI SEIYAKU KABUSHIKI KAISHA, priority 2022, dated 2024).

Assay [1] has as its target GDP-bound NRAS wild-type protein (Homo sapiens, UniProt P01111). The assay can be described thus: Binding to NRAS by surface plasmon resonance (SPR), KD and KD ratio to KRAS. As to conditions: ratio of the KD value with respect to GDP-bound NRAS wild-type protein to the KD value with respect to KRAS. The gist of the method:
(§1)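 GDP-bound biotin-Avi RAS captured at ~100–300 RU, 30°C, pH 7.4 HBS containing 10 µM GDP, 10 mM MgCl2, 1 mM DTT, 0.01% Tween 20 and 4% DMSO. KD by 1:1 fitting.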

The target of the next assay is HRAS wild-type protein (Homo sapiens, UniProt P01112). The experiment in a line: Binding to HRAS by surface plasmon resonance (SPR), KD and KD ratio to KRAS. As to conditions: ratio of the KD value with respect to HRAS wild-type protein to the KD value with respect to KRAS. The method, boiled down: as §1
Sequence of HRAS wild-type protein (P01112 whole entry): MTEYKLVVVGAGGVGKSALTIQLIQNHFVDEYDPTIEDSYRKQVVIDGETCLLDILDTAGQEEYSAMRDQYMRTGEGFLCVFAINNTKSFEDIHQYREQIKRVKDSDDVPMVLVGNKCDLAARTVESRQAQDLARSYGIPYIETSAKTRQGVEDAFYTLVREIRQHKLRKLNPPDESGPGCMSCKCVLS
(Surface plasmon resonance follows binding to a sensor surface in real time, without labels.)

The test system of assay [2] is human lung cancer strain NCI-H441. In kind it is cell-based. The method, boiled down:
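Readout: […] after the ATP-based reagent. Compound: serial dilutions in dimethyl sulfoxide.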

The IC50 is the point on the concentration scale where inhibition reaches its midpoint. Higher therefore signals weaker potency.

Sequence of GDP-bound NRAS wild-type protein (P01111 whole entry): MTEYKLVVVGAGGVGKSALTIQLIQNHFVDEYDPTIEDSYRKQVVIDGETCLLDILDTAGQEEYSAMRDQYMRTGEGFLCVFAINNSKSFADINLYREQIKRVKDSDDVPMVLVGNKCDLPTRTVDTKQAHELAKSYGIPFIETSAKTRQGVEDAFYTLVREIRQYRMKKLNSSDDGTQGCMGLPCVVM

Take `CCO[C@@H]1C[C@H]2C(=O)NC3(CC(C)(C)C3)C(=O)N(C)[C@@H](C(CC)CC)C(=O)N(C)[C@H](C(=O)N(C)C)CC(=O)N(C)[C@@H](C(C)C)C(=O)N[C@@H]([C@@H](C)CC)C(=O)N(C)CC(=O)N(C)[C@H]3C/C=C\CCN(C3=O)[C@@H](Cc3ccc(C(F)(F)F)cc3)C(=O)N(C)CC(=O)N[C@@H](CCc3cc(F)c(C(F)(F)F)c(F)c3)C(=O)N2C1` [PP2135]: the “NRAS /KRAS” value in assay [1] is on record as “AA (a compound having 20 or more is denoted as AA)”. Moreover, the “HRAS /KRAS” value on HRAS wild-type protein was “A (a compound having 10 or more and less than 20 is denoted as A)”. The compound further displayed a half-maximal inhibitory concentration (IC50) in assay [2] of 15.7 nM.

For the compound `CCO[C@@H]1C[C@H]2C(=O)NC3(CC(C)(C)C3)C(=O)N(C)[C@@H](C(CC)CC)C(=O)N(C)[C@H](C(=O)N(C)C)CC(=O)N(C)[C@@H](CC3CC3)C(=O)N[C@@H]([C@@H](C)CC)C(=O)N(C)CC(=O)N(C)[C@H]3C/C=C\CCN(C3=O)[C@@H](Cc3ccc(C)cc3)C(=O)N(C)CC(=O)N[C@@H](CCc3cc(F)c(C(F)(F)F)c(F)c3)C(=O)N2C1` [PP2137], the “NRAS /KRAS” value in assay [1] is “A (a compound having 10 or more and less than 20 is denoted as A)”. Further, the “HRAS /KRAS” value on HRAS wild-type protein was “A (a compound having 10 or more and less than 20 is denoted as A)”. Besides, the concentration for half-maximal inhibition (IC50) in assay [2] came to 16.8 nM.

For `CCO[C@@H]1C[C@H]2C(=O)NC3(CC(C)(C)C3)C(=O)N(C)[C@@H](C(CC)CC)C(=O)N(C)[C@H](C(=O)N(C)C)CC(=O)N(C)[C@@H](CC3CCC3)C(=O)N[C@@H]([C@@H](C)CC)C(=O)N(C)CC(=O)N(C)[C@H]3C/C=C\CCN(C3=O)[C@@H](Cc3ccc(C(F)(F)F)cc3)C(=O)N(C)CC(=O)N[C@@H](CCc3ccc(C(F)(F)F)c(Cl)c3)C(=O)N2C1` [PP2138], the “NRAS /KRAS” value in assay [1] was “A (a compound having 10 or more and less than 20 is denoted as A)”. Moreover, the “HRAS /KRAS” value on HRAS wild-type protein was “A (a compound having 10 or more and less than 20 is denoted as A)”. For the same compound, half-maximal inhibition in assay [2] (IC50) required 15.7 nM.

Take `CCO[C@@H]1C[C@H]2C(=O)NC3(CC(C)(C)C3)C(=O)N(C)[C@@H](C(CC)CC)C(=O)N(C)[C@H](C(=O)N(C)C)CC(=O)N(C)[C@@H](C(C)C)C(=O)N[C@@H]([C@@H](C)CC)C(=O)N(C)CC(=O)N(C)[C@H]3C/C=C\CCN(C3=O)[C@@H](Cc3ccc(C(F)(F)F)cc3)C(=O)N(C)CC(=O)N[C@@H](CCc3ccc(C(F)(F)F)c(Cl)c3)C(=O)N2C1` [PP2140]: the “NRAS /KRAS” value in assay [1] was “AA (a compound having 20 or more is denoted as AA)”. The “HRAS /KRAS” value on HRAS wild-type protein is “A (a compound having 10 or more and less than 20 is denoted as A)”. The IC50 in assay [2] was 24.7 nM.

For the compound `CCO[C@@H]1C[C@H]2C(=O)NC3(CC(C)(C)C3)C(=O)N(C)[C@@H](C(CC)CC)C(=O)N(C)[C@H](C(=O)N(C)C)CC(=O)N(C)[C@@H](C)C(=O)N[C@@H]([C@@H](C)CC)C(=O)N(C)CC(=O)N(C)[C@H]3C/C=C\CCN(C3=O)[C@@H](Cc3ccc(C)cc3)C(=O)N(C)CC(=O)N[C@@H](CCc3cc(F)c(C(F)(F)F)c(F)c3)C(=O)N2C1` [PP2143], the “NRAS /KRAS” value in assay [1] was “A (a compound having 10 or more and less than 20 is denoted as A)”. The “HRAS /KRAS” value on HRAS wild-type protein is “A (a compound having 10 or more and less than 20 is denoted as A)”. This compound returned an IC50 in assay [2] of 6.6 nM.

For the compound `CCO[C@@H]1C[C@H]2C(=O)NC3(CC(C)(C)C3)C(=O)N(C)[C@@H](C(CC)CC)C(=O)N(C)[C@H](C(=O)N3CCCC3)CC(=O)N(C)[C@@H](COC)C(=O)N[C@@H]([C@@H](C)CC)C(=O)N(C)CC(=O)N(C)[C@H]3C/C=C\CCN(C3=O)[C@@H](Cc3ccc(C)cc3)C(=O)N(C)CC(=O)N[C@@H](CCc3ccc(C(F)(F)F)c(Cl)c3)C(=O)N2C1` [PP2144], in assay [1], the “NRAS /KRAS” value was “AA (a compound having 20 or more is denoted as AA)”. The “HRAS /KRAS” value on HRAS wild-type protein is “A (a compound having 10 or more and less than 20 is denoted as A)”. Further, it took 29 nM to reach half-maximal inhibition in assay [2] (IC50).
